Experimental data: patent US11318141B2, “Methods and compositions related to STK1-targeted small molecules as antibiotic resistance breakers” (Ohio State Innovation Foundation, priority 2017, dated 2022)
Values after ≈ are worked out from the molar mass of the structure shown. Values joined by “and” are separate entries in the source; they are usually repeats but may differ in a detail not shown here. Equal entries are not always repeated. Where two headings read alike, the source gives them in different places.

Experiments:
S. aureus MW2-WT [1] = experiment: microbe, parasite or virus in culture; type: cell-based, Staphylococcus aureus; details: for MIC / susceptibility pattern for MW2 in the presence vs absence of Inh2-B1: E-test, 50 μM Inh2-B1
[2] = system: S. aureus MW2ΔSTK1 mutant; experiment: E-test antibiotic susceptibility (MIC), Muller-Hinton agar; type: cell-based; details: Staphylococcus aureus
[3] = system: S. aureus MW2ΔSTP1 mutant; experiment: as above; type: cell-based; details: Staphylococcus aureus
S. aureus MW2 wild-type = experiment: Checkerboard titration end-point bactericidal assay (MBC), Muller-Hinton agar; type: cell-based, Staphylococcus aureus; details: for MBC: Staphylococcus aureus, MW2WILDTYPE
Description: FIGS. 15A-15B show checkerboard assays for determining bactericidal assay. Serial two-fold dilutions of 2 mM of Inh2-B1 (MW=411.58 g/mol) and (A) 3 mM ceftriaxone (MW=669.7 g/mol) were made in two separate 96-well plates in vertical (B1-B12 to H1-H2 wells) and horizontal (A2-H2 to A12-H12 wells) directions respectively. Serially diluted Inh2-B1 (100 μL) in the individual well was then mixed with the 100 μL serially diluted ceftriaxone present in the corresponding wells. The resulting various combinations of Inh2-B1 (starting from 1 mM) and ceftriaxone (starting from 1.5 mM) or cefotaxime (2.1 mM) as well as serially diluted one Inh2-B1 (B1 to H1) and ceftriaxone (A2-A12) or cefotaxime (A2-A12) were then incorporated in Muller-Hinton mini agar plates (2 mL). The agar plates were then seeded and diluted S. aureus MW2-wild-type culture equivalent to approximately 23±3 CFU. This checkerboard assay was used to determine the ideal combination of lowest concentration of Inh2-B1 and ceftriaxone that kills 99.9% of the wild-type MW2.
Since the STK1 is not essential for bacterial survival and its absence results in retardation of growth, an end-point bactericidal assay was done, employing the Checkerboard titration method followed by a time-to-kill assay using the broth dilution method. The 96-well plate-based checkerboard titration assays were performed using the fixed number of CFUs of MW2 strain, and the survival of the bacteria was measured on solid agar plates as an end-point result. […] The cut-off value to designate clinical isolates of S. aureus for antibiotics, including Ceftriaxone (TX) and Cefotaxime (CT) as susceptible, is less than 4 μg/ml (i.e., <4.8 μM of TX, and <7 μM of CT). […] CFU counts of MW2-WT grown in the presence of various concentrations of Inh2-B1 were examined over a period of 16 h. […] Similarly, it was also determined CFU counts of MW2-WT and MW2ΔSTK1 strains each grown in the absence or the presence of 50 μM of Inh2-B1 and 1.5 μM Ceftriaxone (1 μg/ml) or […] Cefotaxime (1 μg/ml) for 16 h employing the broth dilution method. […] Further, to address whether MW2 or STK1 could become refractory to a potential combined therapy, the S. aureus MW2 wild-type strain was grown in the presence of suboptimal dose of Inh2-B1 alone and combination with Ceftriaxone and Cefotaxime (25 μM Inh2-B1 and 3 μM of Ceftriaxone or 3 μM Cefotaxime) for consecutive 10 generations.
(§1) Subsequently, the susceptibility of S. aureus MW2 strain to Ceftriaxone, Cefotaxime, Inh2, and Inh2-B1 was confirmed by the CLSI recommended serial dilution method using Muller Hinton broth. Minimum bactericidal activity (MBC) was measured using Muller-Hinton agar. Changes in the MBC of Ceftriaxone/Cefotaxime in the presence of serially diluted Inh2-B1 was determined in two steps. Initial screening was carried out using the Checkerboard method using Muller-Hinton agar (FIG. 15). […] Subsequent time to kill assays were carried out using 50 μM Inh2-B1 and Ceftriaxone. Cefotaxime (1 μg/ml) in a final volume of 250 μl using a sterile 96-well (U-bottom) microtiter plate over a period of 16 h at 37° C. under constant rotation (120 rpm). Optical density and corresponding CFU counts were measured at every two-hour interval up to 8 hours with a final overnight reading at the end of incubation period. CFU counts were measured using appropriate dilution of 10 μl of properly mixed samples at each time interval.

S. aureus MW2-WT [4] = experiment: Time-to-kill assay (OD and CFU counts over 16 h), broth dilution; type: cell-based, Staphylococcus aureus; details: only 50 μM Inh2-B1, only 1.5 μM Ceftriaxone (1 μg/ml) or only 3 μM Cefotaxime (1 μg/ml), 16 h
Description: FIGS. 4A-F show. […] Optical Density and corresponding Colony forming units of (C and D) MW2-WT and (E and F) MW2ΔSTK1 cultures in the presence or absence 50 μM Inh2-B1, 1.51 μM (1 μg/ml) Ceftriaxone, 2.125 μM (1 μg/ml) Cefotaxime, and combination of Inh2-B1 plus Ceftriaxone, and Inh2-B1 plus Cefotaxime. The experiments were carried out as described in the Materials and Method section using Muller-Hinton broth and seeded with 4×10^6 CFUs of S. aureus MW2-Wild type or MW2ΔSTK1 strains per well. Each data points represent Mean±S.D. P values of significance (**=<0.01, ***=<0.001) were determined using the t-test with Welch's corrections. NS—Not significant.
as §1, with “interval. All experiments were performed in three biological replicates and the statistical analysis of the results obtained at each time point was carried out by the non-parametric t-test with Welch's correction using GraphPad Prism 6 software.” for “interval.”

S. aureus MW2-WT [5] = experiment: S. aureus mouse septicemia model, therapeutic study; type: in vivo, CD-1 mice; details: only Cefotaxime 10 mg/kg
Description: The virulence potential of the wild-type S. aureus MW2 wild-type and corresponding MW2ΔSTK1 and MW2ΔSTP1 mutants was assessed using the mouse-septicemia model. CD-1 mice (5 weeks old, 20-22 g. Charles River Laboratories, ten female mice/group and housed in a group of 5 mice/cage) were lightly anesthetized with isoflurane and injected retro-orbitally with the S. aureus MW2 or isogenic MW2Δstk1 mutant (4×10^8 CFU/0.1 ml of PBS). […] For therapeutic studies, the animals were first challenged with MW2-WT strain as described above and subsequently administered with antibiotic and/or small molecule compounds. The latter was started 4 h after the challenge and subsequently 12 h apart for 4 days post infection. Thus, Inh2-B1 (5 mg/kg body weight in 0.3 ml vehicle buffer), Ceftriaxone (10 and 25 mg/kg body weight in 0.3 ml vehicle buffer). Cefotaxime (10 mg/kg body weight), combination of Ceftriaxone (10 mg and 25 mg/kg body weight in 0.3 ml vehicle buffer) or Cefotaxime (10 mg/kg body weight) with Inh2-B1 (5 mg/kg body weight in 0.3 ml vehicle buffer), or 0.3 ml of vehicle-buffer (50 mM Tris/HCl, pH 8.8, 1.67% [v/v] DMSO). Early removal and euthanasia criteria were applied to all experimental mice showing penultimate sign(s) of the unrecoverable stage of illness, including ruffled skin with a hunch back, loss of more than 20% of body mass as compared to unchallenged mice receiving mock treatment, dyspnea, and labored gasping. All experiments were performed twice. Data were combined, and percentage survival in each group was statistically evaluated by the Log-Rank test (Kaplan-Meier) using the GraphPad Prism 6 software. P<0.05 was treated as a significant difference. On Day 3 P.I., 3-6 mice from different groups receiving treatment with a single antibiotic or combination therapy were euthanized and sacrificed, and kidneys were […] for determining the bacterial load, which was determined by counting the colony forming units in the homogenized tissue in sterile PBS buffer.

| SMILES | MIC (S. aureus MW2-WT [1]; Staphylococcus aureus, MW2WT) [mg/L] | MIC [2] [mg/L] | MIC [3] [mg/L] | MBC (S. aureus MW2 wild-type; agent alone, MW2, read-out: Minimum bactericidal concentration (MBC)) | MBC (S. aureus MW2 wild-type; in the presence of 50 μM of Inh2-B1, read-out: MBC for MW2 in the presence of Inh2-B1) | concentration up to which growth of MW2 was seen (S. aureus MW2 wild-type; agent alone, further analysis) [µM] | concentration of wells with ≥1 CFU of wild-type MW2 (S. aureus MW2 wild-type; checkerboard, agent alone) [µM] | fold reduction of MBC (S. aureus MW2 wild-type; in the presence of 50 μM of Inh2-B1 vs antibiotic alone) [fold] | growth pattern of the wild-type, single agent (S. aureus MW2-WT [4]) | time within which all challenged mice died (S. aureus MW2-WT [5]) [h] | MIC / susceptibility pattern for MW2 in the presence vs absence of Inh2-B1 (S. aureus MW2-WT [1]) |
| --- | --- | --- | --- | --- | --- | --- | --- | --- | --- | --- | --- |
| CO/N=C(\C(=O)N[C@@H]1C(=O)N2C(C(=O)O)=C(COC(C)=O)CS[C@H]12)c1csc(N)n1 [Cefotaxime] | > 100 | 4 (≈ 8.78 µM) | > 100 | 220 µM and 100 µg/mL | 27.5 µM and 12.5 µg/mL | 176 | ≤ 110 | 8 | remained unaltered | 36 to 48 | – |
| CC[C@H]1OC(=O)[C@H](C)[C@@H](O[C@H]2C[C@@](C)(OC)[C@@H](O)[C@H](C)O2)[C@H](C)[C@@H](O[C@@H]2O[C@H](C)C[C@H](N(C)C)[C@H]2O)[C@](C)(O)C[C@@H](C)C(=O)[C@H](C)[C@@H](O)[C@]1(C)O [Erythromycin] | – | – | – | – | – | – | – | – | – | – | remained unaltered |
| C[C@@H](O)[C@H]1C(=O)N2C(C(=O)O)=C(S[C@@H]3CN[C@H](C(=O)N(C)C)C3)[C@H](C)[C@H]12 [Meropenem] | – | – | – | – | – | – | – | – | – | – | remained unaltered |
